Laboratory results as given in ChEMBL document CHEMBL3853264 (Medchemcomm, 2016).

Experiments:
[1] = biological target: T1, Solute carrier family 22 member 12 (Homo sapiens, UniProt Q96S37); assay: Inhibition of URAT1 (unknown origin)
T1 sequence (Q96S37 whole entry): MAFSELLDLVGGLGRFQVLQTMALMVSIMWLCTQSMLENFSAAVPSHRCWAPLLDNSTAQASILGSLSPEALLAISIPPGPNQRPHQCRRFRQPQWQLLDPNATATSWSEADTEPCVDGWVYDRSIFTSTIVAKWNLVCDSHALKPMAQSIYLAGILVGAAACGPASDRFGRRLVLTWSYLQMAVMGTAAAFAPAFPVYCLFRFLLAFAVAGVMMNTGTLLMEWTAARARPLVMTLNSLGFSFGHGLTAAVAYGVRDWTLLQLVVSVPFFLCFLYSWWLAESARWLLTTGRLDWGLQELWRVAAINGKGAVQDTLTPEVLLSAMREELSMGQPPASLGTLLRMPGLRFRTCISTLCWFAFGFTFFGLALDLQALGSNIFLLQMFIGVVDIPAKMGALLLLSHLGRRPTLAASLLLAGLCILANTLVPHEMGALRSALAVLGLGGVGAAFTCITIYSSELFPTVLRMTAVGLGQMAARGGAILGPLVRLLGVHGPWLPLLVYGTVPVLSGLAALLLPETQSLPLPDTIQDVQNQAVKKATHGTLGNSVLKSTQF

[2] = Intrinsic clearance in human liver microsomes; type: ADME; conditions: read-out: CLH
[3] = Drug level in rat hepatocytes treated with 4-(3-chloro-4-(hydroxymethyl)phenoxy)-3-cyano-N-(5-fluoropyridin-2-yl)benzenesulfonamide; type: ADME, cell-based, Hepatocyte
[4] = biological target: T1, Solute carrier family 22 member 12; assay: Inhibition of human C-terminal eGFP-tagged URAT1 long isoform expressed in CHO cells assessed as decrease in [14C]-uric acid uptake preincubated for 15 mins followed by [14C]-uric acid addition and incubated in dark for 3 hrs by scintillation counting method; type: cell-based
[5] = Octanol-water partition co-efficient, log D of the compound by shake flask method; type: physicochemical

Structure (SMILES): CC(C)(Sc1ccncc1-c1ccc(C#N)c2ccccc12)C(=O)O
- IC50 [1]: 23 nM

Structure (SMILES): N#Cc1ccc(Oc2ccc(S(=O)(=O)Nc3ccc(F)cn3)cc2C#N)cc1
- microsomal CLint [2]: < 8 µL/min/mg

Structure (SMILES): N#Cc1cc(S(=O)(=O)Nc2ccc(F)cn2)ccc1Oc1ccc(CO[C@@H]2O[C@H](C(=O)O)[C@@H](O)[C@H](O)[C@H]2O)c(Cl)c1
- Drug metabolism [3]: Metabolite_Detected

Structure (SMILES): CC(C)(Oc1ccc(C(=O)c2ccc(Cl)cc2)cc1)C(=O)O [FENOFIBRIC ACID]
- IC50 [1]: 11000 nM

Structure (SMILES): CC(C)OC(=O)C(C)(C)Oc1ccc(C(=O)c2ccc(Cl)cc2)cc1 [FENOFIBRATE]
- IC50 [1]: > 75000 nM

Structure (SMILES): N#Cc1ccc(Oc2ccc(S(=O)(=O)Nc3ncns3)cc2C#N)cc1Cl
- IC50 [4]: 1120 nM

Structure (SMILES): N#Cc1ccc(Oc2ccc(S(=O)(=O)Nc3ccc(F)cn3)cc2F)cc1F
- IC50 [4]: 382 nM

Structure (SMILES): N#Cc1ccc(Oc2ccc(S(=O)(=O)Nc3ccc(F)cn3)cc2C#N)c(Cl)c1
- logD [5]: 1.9
- microsomal CLint [2]: < 8 µL/min/mg

Structure (SMILES): N#Cc1cc(Oc2ccc(S(=O)(=O)Nc3ccc(F)cn3)cc2C#N)ccc1F
- logD [5]: 1.5
- microsomal CLint [2]: 83 µL/min/mg

Structure (SMILES): N#Cc1cc(Oc2ccc(S(=O)(=O)Nc3ccc(F)cn3)cc2C#N)ccc1Cl
- logD [5]: 2
- microsomal CLint [2]: 134 µL/min/mg

Structure (SMILES): N#Cc1ccc(Oc2ccc(S(=O)(=O)Nc3cccnc3)cc2C#N)cc1Cl
- IC50 [4]: 395 nM

Structure (SMILES): N#Cc1ccc(Oc2ccc(S(=O)(=O)Nc3ccc(F)cn3)c(F)c2)cc1F
- IC50 [4]: 37 nM

Structure (SMILES): N#Cc1ccc(Oc2ccc(S(=O)(=O)Nc3ccc(F)cn3)cc2)cc1F
- IC50 [4]: 88 nM

Structure (SMILES): N#Cc1ccc(Oc2ccc(S(=O)(=O)Nc3ccccn3)cc2C#N)cc1Cl
- IC50 [4]: 115 nM

Structure (SMILES): N#Cc1ccc(Oc2ccc(S(=O)(=O)Nc3ccncn3)cc2C#N)cc1Cl
- IC50 [4]: 5150 nM

Structure (SMILES): N#Cc1cc(S(=O)(=O)Nc2ccc(F)cn2)ccc1Oc1ccc(F)c(Cl)c1
- logD [5]: 2.3
- microsomal CLint [2]: 163 µL/min/mg

Structure (SMILES): N#Cc1ccc(Oc2ccc(S(=O)(=O)Nc3ncccn3)cc2C#N)cc1Cl
- IC50 [4]: 1820 nM

Structure (SMILES): N#Cc1ccc(Oc2ccc(S(=O)(=O)Nc3ccc(F)cn3)cc2C#N)cc1F
- logD [5]: 1.4
- microsomal CLint [2]: < 8 µL/min/mg

Structure (SMILES): N#Cc1cccc(Oc2ccc(S(=O)(=O)Nc3ccc(F)cn3)cc2C#N)c1
- microsomal CLint [2]: 65 µL/min/mg
